{"source": "patent EP1182208A2", "about": "“Composition for DNA transfection” (Roche Diagnostics GmbH, priority 2000, dated 2002)", "key": {"HEK293-EBNA cells [1]": {"test_system": "HEK293-EBNA cells", "experiment": "Influence of antibiotics on transient transfection in HL medium, luciferase expression (Example 13)", "assay_type": "cell-based, Human", "details": "control without = 100, compound from Example 2 and PEI", "experimental": "1 mg of the compound from Example 2 was dissolved in 0.5 ml acetonitrile, mixed for 3-5 minutes at 37 °C, diluted in 0.5 ml sterile, pure water (1 mg/ml) and stored at 4 °C. 90 mg polyethelenimine (PEI), with a molecular weight of 25 kDa, were dissolved in sterile, pure water (0.9 mg/ml), neutralized with HCl, sterile filtered and stored at 4 °C. 3 µl of a plasmid solution (1 mg/ml) encoding the luciferase gene was added to 1.5 ml HL medium (containing 0.3% Primatone RL) and mixed. After 2 minutes incubation at room temperature, 2.25 µl of the compound from Example 2 (1mg/ml) was added and mixed, followed by 8.3 µl PEI (0.9 mg/ml). After mixing and incubation for 15-30 minutes at room temperature, the mixture was transferred into 15 ml of HEK293-EBNA cells containing different antibiotics. Cells which were grown in serum-free suspension culture in HL medium (containing 0.3% Primatone RL and different antibiotics) were transferred into fresh HL medium (containing 0.3% Primatone RL and different antibiotics), then adjusted to 5.5-6 x 10^6 cells/ml before adding the DNA complexes. The luciferase activity was measured in the soluble cell extract after 20-22 hours incubation time and expressed as relative light units per ml culture."}, "[2]": {"experiment": "Cell viability of transfected HEK293-EBNA cells in serum-free suspension culture (Example 3)", "assay_type": "cell-based, Human", "details": "human, HEK293-EBNA cells in suspension, serum-free suspension culture", "experimental": "(§1) 1 mg of the compound obtained in Example 2 was dissolved in 500 µl acetonitrile, diluted in 500 µl sterile pure water (1 mg/ml) and stored at 4 °C. 15 µl of a plasmid solution (1 mg/ml) encoding the soluble human tumor necrosis factor receptor p55 gene was transferred into 1.5 ml medium and mixed. Various amounts of the compound obtained in […] was added, mixed and after 10 minutes at room temperature, the mixture was transferred to 15 ml HEK293-EBNA cells in suspension."}, "HEK293-EBNA cells [3]": {"test_system": "HEK293-EBNA cells", "experiment": "Cell viability of transfected HEK293-EBNA cells in serum-free suspension culture (Example 3)", "assay_type": "cell-based, Human", "details": "compound-mediated transfection; serum-free suspension culture of HEK293-EBNA cells", "experimental": "as §1"}, "HEK293-EBNA cells [4]": {"test_system": "HEK293-EBNA cells", "experiment": "Transient transfection of HEK293-EBNA cells in serum-free suspension culture, expression of soluble TNF receptor p55 (Example 3)", "assay_type": "cell-based, Human", "experimental": "as §1"}, "HEK293-EBNA": {"test_system": "HEK293-EBNA", "experiment": "Luciferase transfection efficiency, serum-free suspension culture (Example 5)", "assay_type": "cell-based, Human", "details": "soluble cell extract after 24 hours", "experimental": "(§2) 1 mg of the compound obtained in Example 2 was dissolved in 500 µl sterile pure water (1 mg/ml) and stored at 4 °C. 90 mg polyethyleneimine, with a molecular weight of 25 kDa, was dissolved in sterile pure water (0.9 mg/ml), neutralized with HCl, sterile filtered and stored at room temperature.\n(§3) 3 µl of a plasmid solution (1 mg/ml) encoding the luciferase gene was diluted in 1.5 ml culture medium and mixed. 2.25 µl compound (1 mg/ml) as described in Example 2 was added, mixed and followed by 8.3 µl PEI (0.9 mg/ml). After mixing and incubation for 10 minutes at room temperature, the mixture was transferred into 15 ml of various cells. Cells which were grown in serum-free suspension culture were transferred into fresh medium before adding the complexes. The luciferase activity was measured in the soluble cell extract after 24 hours incubation and expressed as relative light unit (RLU) per milligram protein."}, "HEK293": {"test_system": "HEK293", "experiment": "Luciferase transfection efficiency, serum-free suspension culture (Example 5)", "assay_type": "cell-based, Human", "details": "soluble cell extract after 24 hours", "experimental": "as §2, §3"}, "Glioma C6": {"test_system": "Glioma C6", "experiment": "Luciferase transfection efficiency, serum-free suspension culture (Example 5)", "assay_type": "cell-based", "details": "soluble cell extract after 24 hours", "experimental": "as §2, §3"}, "BHK 21 Cl": {"test_system": "BHK 21 Cl", "experiment": "Luciferase transfection efficiency, serum-free suspension culture (Example 5)", "assay_type": "cell-based", "details": "soluble cell extract after 24 hours", "experimental": "as §2, §3"}, "CHO dhfr-": {"test_system": "CHO dhfr-", "experiment": "Luciferase transfection efficiency, serum-free suspension culture (Example 5)", "assay_type": "cell-based", "details": "soluble cell extract after 24 hours", "experimental": "as §2, §3"}, "HEK293-EBNA cells [5]": {"test_system": "HEK293-EBNA cells", "experiment": "Effect of various compounds on DNA complex formation in DMEM/HAM F12 medium, luciferase expression (Example 11)", "assay_type": "cell-based, Human", "experimental": "1 mg of the compound from Example 2 was dissolved in 0.5 ml acetonitrile, mixed for 3-5 minutes at 37 °C, diluted in 0.5 ml sterile, pure water (1 mg/ml) and stored at 4 °C. 90 mg polyethelenimine (PEI), with a molecular weight of 25 kDa, were dissolved in sterile, pure water (0.9 mg/ml), neutralized with HCl, sterile filtered and stored at 4 °C.\nDifferent growth promotion compounds were added to 1.5 ml DMEM/HAM F12 medium (without any compounds) and mixed. After 2-3 minutes, 3 µl of a plasmid solution (1 mg/ml) encoding the luciferase gene was added to the 1.5 ml […] and mixed. After 2 minutes incubation at room temperature, 2.25 µl of the compound from Example 2 (1mg/ml) was added and mixed, followed by 8.3 µl PEI (0.9 mg/ml). After mixing and incubation for 15-30 minutes at room temperature, the mixture was transferred into 15 ml of HEK293-EBNA cells. Cells which were grown in serum-free suspension culture in HL medium (containing 0.3% Primatone RL) were transferred into fresh HL medium (containing 0.3% Primatone RL) then adjusted to 5.5-6 x 10^6 cells/ml before adding the DNA complexes. The luciferase activity was measured in the soluble cell extract after 20-22 hours incubation time and expressed as relative light units per ml culture. […]"}}, "data": [{"molecule": "C[C@H]1c2cccc(O)c2C(=O)C2=C(O)[C@]3(O)C(=O)C(C(N)=O)=C(O)[C@@H](N(C)C)[C@@H]3[C@@H](O)[C@@H]21", "note": "[Doxycycline]", "values": [{"measurement": "Luciferase activity", "setting": "HEK293-EBNA cells [1]; antibiotic 2 µg/ml in HL medium with Primatone RL (0.3%)", "result": 89, "unit": "%"}]}, {"molecule": "CN[C@@H]1[C@@H](O)[C@@H](O[C@@H]2[C@@H](O)[C@H](O[C@H]3O[C@H]([C@@H](C)O)[C@@H](O)[C@H](O)[C@H]3N)[C@@H](N)C[C@H]2N)OC[C@]1(C)O", "note": "[Geneticin (G-418), Geneticin]", "values": [{"measurement": "Luciferase activity", "setting": "HEK293-EBNA cells [1]; antibiotic 250 µg/ml in HL medium with Primatone RL (0.3%)", "result": 93, "unit": "%"}]}, {"molecule": "Gentamycin", "values": [{"measurement": "Luciferase activity", "setting": "HEK293-EBNA cells [1]; antibiotic 50 µg/ml in HL medium with Primatone RL (0.3%)", "result": 80, "unit": "%"}]}, {"molecule": "CCCCCCCC/C=C\\CCCCCCCC(=O)OC[C@H](COP(=O)(O)OCCNC(=O)CCSSC[C@@H](NC(=O)[C@H](NC(=O)CNC(=O)[C@@H](C)NC(=O)[C@H](NC(=O)[C@@H](CC(C)C)NC(=O)[C@@H](CCCCN)NC(=O)[C@H](NC(=O)[C@@H](CC(C)C)NC(=O)[C@H](NC(=O)[C@H](NC(=O)CNC(=O)[C@@H](CC(C)C)NC(=O)[C@H]1CCCN1C(=O)[C@@H](C)NC(=O)[C@@H](CC(C)C)NC(=O)[C@H](NC(=O)[C@@H](CO)NC(=O)[C@@H](Cc1c[nH]c2ccccc12)NC(=O)[C@H](NC(=O)[C@@H](CCCCN)NC(=O)[C@@H](CCCNC(=N)N)NC(=O)[C@@H](CCCCN)NC(=O)[C@@H](CCCNC(=N)N)NC(=O)[C@@H](CCC(N)=O)NC(=O)[C@H](N)CCC(N)=O)[C@H](C)CC)[C@H](C)CC)[C@H](C)O)[C@H](C)O)C(C)C)C(C)C)[C@H](C)CC)C(N)=O)OC(=O)CCCCCCC/C=C\\CCCCCCCC", "note": "[Compound, retro-inverso dioleylmelittin]", "values": [{"measurement": "viability at 1 µg/mL", "setting": "[2]; Compound 1 µg/ml", "result": "90 to 95", "unit": "%"}, {"measurement": "viability at 2 µg/mL", "setting": "[2]; Compound 2 µg/ml", "result": "90 to 95", "unit": "%"}, {"measurement": "viability at 4 µg/mL", "setting": "[2]; Compound 4 µg/ml", "result": "90 to 95", "unit": "%"}, {"measurement": "viability at 6 µg/mL", "setting": "[2]; Compound 6 µg/ml", "result": "90 to 95", "unit": "%"}, {"measurement": "viability at 10 µg/mL", "setting": "[2]; Compound 10 µg/ml", "result": "90 to 95", "unit": "%"}, {"measurement": "cell toxicity effects", "setting": "HEK293-EBNA cells [3]", "result": "absence of detectable cell toxicity effects"}, {"measurement": "TNFRp55", "setting": "HEK293-EBNA cells [4]; Compound 1 µg/ml", "result": 0.1, "unit": "ng/mL"}, {"measurement": "TNFRp55", "setting": "HEK293-EBNA cells [4]; Compound 2 µg/ml", "result": 0.2, "unit": "ng/mL"}, {"measurement": "TNFRp55", "setting": "HEK293-EBNA cells [4]; Compound 4 µg/ml", "result": 2.5, "unit": "ng/mL"}, {"measurement": "TNFRp55", "setting": "HEK293-EBNA cells [4]; Compound 6 µg/ml", "result": 6.3, "unit": "ng/mL"}, {"measurement": "TNFRp55", "setting": "HEK293-EBNA cells [4]; Compound 10 µg/ml", "result": 83, "unit": "ng/mL"}, {"measurement": "Luciferase activity", "setting": "HEK293-EBNA", "result": "2.2 x 10^6 RLU/mg protein"}, {"measurement": "Luciferase activity", "setting": "HEK293", "result": "1.8 x 10^6 RLU/mg protein"}, {"measurement": "Luciferase activity", "setting": "Glioma C6", "result": "5.8 x 10^6 RLU/mg protein"}, {"measurement": "Luciferase activity", "setting": "BHK 21 Cl", "result": "5.2 x 10^5 RLU/mg protein"}, {"measurement": "Luciferase activity", "setting": "CHO dhfr-", "result": "1.4 x 10^6 RLU/mg protein"}]}, {"molecule": "NC(=O)CC[C@H](N)C(=O)O", "note": "[Glutamine 200 mM, Glutamine]", "values": [{"measurement": "% Increase", "setting": "HEK293-EBNA cells [5]; additive 1:100, Primatone RL was set as 100 %", "result": 13, "unit": "%"}, {"measurement": "Luciferase activity", "setting": "HEK293-EBNA cells [5]; additive dilution 1:100 in DMEM/HAM F12, compound from Example 2 and PEI", "result": 1.06, "unit": "RLU x 10^9/ml"}]}]}
